{"source": "patent US9420790B2", "about": "“Molecules that induce disease resistance and improve growth in plants” (The Regents of the University of California, priority 2013, dated 2016)", "key": {"[1]": {"system": "Tomato cv. Moneymaker seedlings", "experiment": "Root drench assay, aerial fresh weight of soil-grown tomato", "assay_type": "in vivo, Solanum lycopersicum", "details": "10 μM single soil drench, day 14", "description": "(§1) FIG. 7. Relative root length and FW of tomato seedlings and shoots. Tomato cv. Moneymaker seedlings treated with HTC compared to seedlings treated with control (DMSO 0.01%). A. Moneymaker seedlings were plated in square petri dishes on ½ MS medium containing HTC. Root length was measured at day 2, 4, 6, and 8. Results are expressed as percentages of the average root length on 1 μM HTC or control. The average, standard error, and Student's t-test (p<0.05) were calculated from these values. Each time point represents at least 89 distinct root length measurements from at least three biological replicates. Y-axis represents percent of root growth in the presence of synthetic elicitor compared to controls. B. Moneymaker seeds (five seeds per pot with a minimum of 21 pots) were sown on soil drenched with 20 ml of the indicated concentrations of HTC or their respective control. Fresh weight (FW) of the above-ground plant tissues was measured at day 14. Results are expressed as percentages of the average weight of HTC treatments compared to those of the controls. The standard error and Student's t-test (p<0.01) were calculated from at least three biological replicates and the average is shown above. Significant differences between synthetic elicitor-treated and control-treated plants are marked by stars above the corresponding data points. […]"}, "CaBP22 transcript levels": {"system": "CaBP22 transcript levels", "experiment": "RT-PCR analysis of CaBP22 transcript levels in Col-0 and defense mutants", "assay_type": "in vivo, Arabidopsis thaliana", "description": "FIG. 4. Analysis of HTC activity in defense mutant plants. A & B. RT-PCR analysis of CaBP22 transcript levels in Col-0 (wild-type) and mutant backgrounds 24 h after spraying 2-week-old seedlings with mock-solution (1% DMSO), 100 μM DCA, or HTC. RT-PCRs with ACTIN are shown as loading controls. […] C. Analysis of HTC activity in Col-0 or nahG background. Experiments were conducted with three-week-old soil-grown Col-0 or nahG seedlings sprayed with 100 μM HTC, 100 μM DCA, or mock-solution (1% DMSO) 24 h prior to infection with 2×10^4 virulent Noco2 spores ml^−1 (2 ml per pot). Spores were counted at 7 dpi. Mean and SE values were calculated from a minimum of three biological replicates and their averages of are shown.\nTo establish the mode-of-action of HTC, we performed reverse transcription (RT)-PCRs examining transcript levels of the defense marker gene CaBP22 in Col-0 and a set of mutant lines representing various defense signaling mechanisms. […] In the transgenic nahG line, which is compromised in the accumulation of salicylic acid (SA), the ability of HTC to induce CaBP22 expression was blocked, while that of DCA was not affected (FIGS. 4A and B)."}, "Arabidopsis roots": {"system": "Arabidopsis roots", "experiment": "Root length of Col-0 seedlings on 1/2 MS plates containing synthetic elicitor", "assay_type": "in vivo, Arabidopsis thaliana", "description": "FIG. 5. Relative root length of Col-0 plants grown on synthetic elicitors. Col-0 seedlings were plated in square petri dishes on ½ MS medium containing 1, 10, 25, 50, 75 or 100 μM of HTC, DCA, INA, or the respective controls (solvent only). A. Roots of Col-0 seedlings grown on 1 uM HTC or control (0.01% DMSO) medium 14 days after germination. B. Average percent Col-0 root length grown on synthetic elicitors compared to Col-0 grown on control. Root length was measured at day 3, 5, 7, 11, and 14. Results are expressed as percentages of the average root length on the respective synthetic elicitor treatments compared to their controls. The average, standard error, and Student's t-test (p<0.05) were calculated from these values. Significant differences between synthetic elicitor-treated and control-treated plants are marked by a star above the corresponding data point. Y-axis represents relative root growth in the presence of synthetic elicitor. CSE: concentration of synthetic elicitor; dpg: days post germination.\nWe compared the ability of other synthetic elicitors to enhance growth, and performed root growth assays with INA, DCA, and HTC (FIG. 5B). Each synthetic elicitor was added to the solid media plates at concentrations ranging from 1 to 100 μM. The plates were placed upright in a growth chamber, and root lengths were measured at 3 d-intervals. To merge data sets, root length was expressed as a percentage of their value relative to the average of the mock (control) for that data set. Normalizing each root length to its control allowed all replicates to be combined together to calculate averages, standard errors, and perform statistical tests (FIG. 5B)."}, "[2]": {"system": "Tomato cv. Moneymaker seedlings", "experiment": "Root length of plate-grown tomato seedlings", "assay_type": "in vivo, Solanum lycopersicum", "details": "1 μM", "description": "as §1"}, "[3]": {"system": "CaBP22^−333::GUS expression", "experiment": "CaBP22-333::GUS reporter assay, liquid-grown seedlings (saturation treatment)", "assay_type": "in vivo, Arabidopsis thaliana", "details": "within 24 h, one week-old seedlings", "description": "B. Trypan blue staining of CaBP22^−333 : :GUS seedlings incubated for 24 h in medium containing compounds at the indicated concentrations.\nTo quantify the bioactivity of HTC, we performed various assays with one week-old CaBP22^−333::GUS seedlings submerged in liquid growth medium containing HTC or mock-solution (saturation treatment). […] To examine if HTC induces phytotoxicity, we stained Col-0 seedlings after saturation treatment with trypan blue.\nTo determine which substituents or moieties of the HTC molecule are critical for its defense-inducing activity, seven commercially available HTC analogs were analyzed (FIG. 3A). We compared the ability of these compounds to induce GUS expression in saturation treated CaBP22^−333::GUS Arabidopsis seedlings to that of DCA and HTC. […] We also used trypan blue staining to examine HTC-analog-induced phytotoxicity."}}, "note": "Entries after “also recorded” stand apart in the source; their conditions may differ.", "data": [{"smiles": "O=C(O)C1CSC(c2cc(Br)ccc2O)N1", "note": "(centres unmarked) [HTC, 2-(5-bromo-2-hydroxy-phenyl)-thiazolidine-4-carboxylic acid]", "values": [{"measurement": "fresh weight of shoots relative to mock-treated plants", "setting": "[1]", "result": 128.5, "unit": "%"}, {"measurement": "CaBP22 transcript levels", "setting": "CaBP22 transcript levels; Col-0, 24 h after spraying 100 μM", "result": "induced an increase"}, {"measurement": "CaBP22 transcript accumulation", "setting": "CaBP22 transcript levels; pad4-1 mutant, 100 μM", "result": "reduced"}, {"measurement": "CaBP22 transcript accumulation", "setting": "CaBP22 transcript levels; sid2-2 mutant, 100 μM", "result": "reduced"}, {"measurement": "ability to induce CaBP22 expression", "setting": "CaBP22 transcript levels; transgenic nahG line, 100 μM", "result": "blocked"}, {"measurement": "CaBP22 transcript levels", "setting": "CaBP22 transcript levels; wrky70-3 mutant, 24 h after spraying 100 μM", "result": "not"}, {"measurement": "CaBP22 transcript accumulation", "setting": "CaBP22 transcript levels; wrky72-2 mutant, 100 μM", "result": "full HTC-induced CaBP22 transcript accumulation"}, {"measurement": "root length relative to control plates", "setting": "Arabidopsis roots; 1 μM", "result": "up to 180%"}, {"measurement": "enhancement of root length / root growth", "setting": "Arabidopsis roots; HTC at 1 μM only, DCA and INA at various tested concentrations", "result": "enhanced the root length"}, {"measurement": "reduction of length of roots", "setting": "Arabidopsis roots; concentrations above 50 μM", "result": "~80", "unit": "%"}, {"measurement": "root growth at higher concentrations", "setting": "Arabidopsis roots; higher doses, range tested 1 to 100 μM", "result": "reduced root growth; also recorded: strongly inhibited"}, {"measurement": "change in root length", "setting": "[2]; all analyzed time-points", "result": "significant increase in root length"}, {"measurement": "root length relative to mock-treated plants", "setting": "[2]; day 6", "result": 136.1, "unit": "%"}, {"measurement": "concentration activating CaBP22-333::GUS expression (as low as)", "setting": "[3]", "result": 1, "unit": "µM"}]}]}
